Reference: patent publication US10597388B2, “Pyridazinone herbicides” (FMC CORPORATION, priority 2014, dated 2020)

What was measured:
Assay in all cases: Test C greenhouse herbicide test, pre- and postemergence
Assay type in all cases: in vivo
[1] = test system: galium (catchweed bedstraw, Galium aparine)
Method in brief: (§1)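 Visual 0–100 injury score (100 = complete control) taken against untreated controls after 13–15 d in greenhouse. Test chemicals, formulated in solvent plus surfactant, applied preemergence to seeds in loam–sand soil or postemergence to 1- to 4-leaf plants (2–18 cm).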

[2] = test system: barnyardgrass (Echinochloa crus-galli)
Method in brief: as §1

[3] = test system: johnsongrass (Sorghum halepense)
Method in brief: as §1

[4] = test system: nutsedge, yellow (yellow nutsedge, Cyperus esculentus)
Method in brief: as §1

[5] = test system: waterhemp (common waterhemp, Amaranthus rudis)
Method in brief: as §1

[6] = test system: oilseed rape (Brassica napus)
Method in brief: as §1

[7] = test system: lambsquarters (Chenopodium album)
Method in brief: as §1

[8] = test system: ragweed (common ragweed, Ambrosia elatior)
Method in brief: as §1

[9] = test system: foxtail, giant (giant foxtail, Setaria faberii)
Method in brief: as §1

soybean (Glycine max) = test system: soybean (Glycine max)
Method in brief: as §1

[10] = test system: crabgrass, large (large crabgrass, Digitaria sanguinalis)
Method in brief: as §1

[11] = test system: wheat (winter wheat, Triticum aestivum)
Method in brief: as §1

[12] = Postemergence, 31 g ai/ha, 0 to 100 scale (0 no effect, 100 complete control)
[13] = Postemergence, 125 g ai/ha, scale 0 to 100, 0 is no effect, 100 is complete control
[14] = Postemergence, 250 g ai/ha, scale 0 to 100, 0 no effect, 100 complete control, 13 to 15 d
[15] = Preemergence, 31 g ai/ha, scale 0 to 100, 0 is no effect, 100 is complete control
[16] = Preemergence, 62 g ai/ha, scale 0 to 100, 0 is no effect, 100 is complete control
[17] = Preemergence, 125 g ai/ha, scale 0 to 100, 0 is no effect, 100 is complete control
[18] = Preemergence, 250 g ai/ha, scale 0 to 100, 0 no effect, 100 complete control
[19] = postemergence, 62 g ai/ha, scale 0 to 100, 0 no effect, 100 complete control

CCc1sc2c(C)cc(C)cc2c1-c1c(O)c(C)nn(C)c1=O [Compound 57]
45: Plant response rating, Foxtail, Giant [9, 15]
100: Plant response rating, Galium [1, 14] | Plant response rating, Barnyardgrass [2, 17] | Barnyardgrass plant response rating [2, 18] | Plant response rating, Waterhemp [5, 14] | Plant response rating, Waterhemp [5, 17] | Waterhemp plant response rating [5, 18] | Plant response rating, Lambsquarters [7, 15] | Plant response rating, Lambsquarters [7, 16] | Plant response rating, Lambsquarters [7, 17] | Lambsquarters plant response rating [7, 18] | Plant response rating, Ragweed [8, 17] | Ragweed plant response rating [8, 18] | Foxtail, Giant plant response rating [9, 18] | Crabgrass, Large plant response rating [10, 18]
35: Plant response rating, Crabgrass, Large [10, 14] | Plant response rating, Crabgrass, Large [10, 16]
85: Plant response rating, Waterhemp [5, 13] | Plant response rating, Ragweed [8, 13] | Plant response rating, Foxtail, Giant [9, 13]
98: Galium plant response rating [1, 18] | Plant response rating, Barnyardgrass [2, 14] | Plant response rating, Waterhemp [5, 16] | Plant response rating, Crabgrass, Large [10, 17]
0: Plant response rating, Johnsongrass [3, 15] | Plant response rating, Johnsongrass [3, 16] | Plant response rating, Johnsongrass [3, 17] | Johnsongrass plant response rating [3, 18] | Oilseed Rape plant response rating [6, 12] | Plant response rating, Oilseed Rape [6, 13] | Plant response rating, Oilseed Rape [6, 15] | Plant response rating, Oilseed Rape [6, 16] | Oilseed Rape plant response rating [6, 19] | Soybean plant response rating (soybean (Glycine max); [12]) | Plant response rating, Soybean (soybean (Glycine max); [13]) | Plant response rating, Soybean (soybean (Glycine max); [15]) | Plant response rating, Soybean (soybean (Glycine max); [16]) | Plant response rating, Soybean (soybean (Glycine max); [17]) | Soybean plant response rating (soybean (Glycine max); [18]) | Soybean plant response rating (soybean (Glycine max); [19]) | Plant response rating, Crabgrass, Large [10, 15] | Wheat plant response rating [11, 12] | Plant response rating, Wheat [11, 13] | Plant response rating, Wheat [11, 15] | Plant response rating, Wheat [11, 16] | Plant response rating, Wheat [11, 17] | Wheat plant response rating [11, 19]
60: Oilseed Rape plant response rating [6, 18] | Ragweed plant response rating [8, 12]
30: Plant response rating, Nutsedge, Yellow [4, 16] | Plant response rating, Oilseed Rape [6, 17] | Plant response rating, Crabgrass, Large [10, 13]
90: Plant response rating, Galium [1, 16] | Barnyardgrass plant response rating [2, 12] | Plant response rating, Barnyardgrass [2, 16] | Nutsedge, Yellow plant response rating [4, 12] | Plant response rating, Nutsedge, Yellow [4, 13] | Plant response rating, Nutsedge, Yellow [4, 14] | Plant response rating, Nutsedge, Yellow [4, 17] | Nutsedge, Yellow plant response rating [4, 19] | Plant response rating, Waterhemp [5, 15] | Plant response rating, Lambsquarters [7, 14] | Ragweed plant response rating [8, 19] | Plant response rating, Foxtail, Giant [9, 17]
65: Waterhemp plant response rating [5, 19]
10: Plant response rating, Johnsongrass [3, 14] | Plant response rating, Nutsedge, Yellow [4, 15] | Crabgrass, Large plant response rating [10, 12]
70: Lambsquarters plant response rating [7, 12] | Lambsquarters plant response rating [7, 19] | Plant response rating, Ragweed [8, 15] | Foxtail, Giant plant response rating [9, 12] | Foxtail, Giant plant response rating [9, 19]
50: Waterhemp plant response rating [5, 12]
80: Plant response rating, Galium [1, 15] | Plant response rating, Foxtail, Giant [9, 16]
5: Plant response rating, Barnyardgrass [2, 15] | Johnsongrass plant response rating [3, 12] | Plant response rating, Johnsongrass [3, 13] | Johnsongrass plant response rating [3, 19] | Plant response rating, Oilseed Rape [6, 14] | Plant response rating, Soybean (soybean (Glycine max); [14]) | Plant response rating, Wheat [11, 14] | Wheat plant response rating [11, 18]
20: Crabgrass, Large plant response rating [10, 19]
95: Galium plant response rating [1, 12] | Plant response rating, Galium [1, 13] | Plant response rating, Galium [1, 17] | Galium plant response rating [1, 19] | Plant response rating, Barnyardgrass [2, 13] | Barnyardgrass plant response rating [2, 19] | Nutsedge, Yellow plant response rating [4, 18] | Plant response rating, Lambsquarters [7, 13] | Plant response rating, Ragweed [8, 14] | Plant response rating, Ragweed [8, 16] | Plant response rating, Foxtail, Giant [9, 14]

Cc1ccc2sc(C)c(-c3c(OC(=O)OC(C)C)c(C)nn(C)c3=O)c2c1 [Compound 66]
80: Plant response rating, Lambsquarters [7, 15] | Plant response rating, Foxtail, Giant [9, 14] | Plant response rating, Foxtail, Giant [9, 17]
30: Plant response rating, Barnyardgrass [2, 13] | Plant response rating, Nutsedge, Yellow [4, 17] | Crabgrass, Large plant response rating [10, 19]
70: Barnyardgrass plant response rating [2, 18] | Nutsedge, Yellow plant response rating [4, 19] | Plant response rating, Foxtail, Giant [9, 15]
45: Plant response rating, Crabgrass, Large [10, 14]
55: Plant response rating, Johnsongrass [3, 17] | Foxtail, Giant plant response rating [9, 19]
25: Plant response rating, Johnsongrass [3, 16] | Crabgrass, Large plant response rating [10, 12]
75: Plant response rating, Ragweed [8, 15] | Plant response rating, Foxtail, Giant [9, 16] | Plant response rating, Crabgrass, Large [10, 15] | Plant response rating, Crabgrass, Large [10, 17]
85: Plant response rating, Nutsedge, Yellow [4, 13] | Plant response rating, Nutsedge, Yellow [4, 14] | Plant response rating, Waterhemp [5, 15] | Plant response rating, Lambsquarters [7, 16] | Plant response rating, Lambsquarters [7, 17] | Ragweed plant response rating [8, 12] | Plant response rating, Ragweed [8, 16] | Ragweed plant response rating [8, 19] | Foxtail, Giant plant response rating [9, 18] | Crabgrass, Large plant response rating [10, 18]
65: Johnsongrass plant response rating [3, 18] | Nutsedge, Yellow plant response rating [4, 12] | Nutsedge, Yellow plant response rating [4, 18] | Plant response rating, Foxtail, Giant [9, 13] | Plant response rating, Crabgrass, Large [10, 16]
15: Barnyardgrass plant response rating [2, 12] | Plant response rating, Johnsongrass [3, 14]
40: Plant response rating, Barnyardgrass [2, 17] | Foxtail, Giant plant response rating [9, 12] | Wheat plant response rating [11, 18]
20: Plant response rating, Barnyardgrass [2, 16] | Barnyardgrass plant response rating [2, 19]
10: Plant response rating, Johnsongrass [3, 15] | Plant response rating, Oilseed Rape [6, 13] | Oilseed Rape plant response rating [6, 19] | Plant response rating, Soybean (soybean (Glycine max); [13]) | Soybean plant response rating (soybean (Glycine max); [19])
90: Galium plant response rating [1, 12] | Plant response rating, Galium [1, 15] | Plant response rating, Galium [1, 16] | Plant response rating, Waterhemp [5, 13] | Plant response rating, Waterhemp [5, 16] | Waterhemp plant response rating [5, 19] | Lambsquarters plant response rating [7, 12] | Plant response rating, Ragweed [8, 13] | Plant response rating, Ragweed [8, 17]
98: Galium plant response rating [1, 18] | Waterhemp plant response rating [5, 12] | Lambsquarters plant response rating [7, 18]
5: Johnsongrass plant response rating [3, 12] | Plant response rating, Johnsongrass [3, 13] | Johnsongrass plant response rating [3, 19] | Oilseed Rape plant response rating [6, 18] | Plant response rating, Soybean (soybean (Glycine max); [14])
0: Plant response rating, Barnyardgrass [2, 15] | Oilseed Rape plant response rating [6, 12] | Plant response rating, Oilseed Rape [6, 14] | Plant response rating, Oilseed Rape [6, 15] | Plant response rating, Oilseed Rape [6, 16] | Plant response rating, Oilseed Rape [6, 17] | Soybean plant response rating (soybean (Glycine max); [12]) | Plant response rating, Soybean (soybean (Glycine max); [15]) | Plant response rating, Soybean (soybean (Glycine max); [16]) | Plant response rating, Soybean (soybean (Glycine max); [17]) | Soybean plant response rating (soybean (Glycine max); [18]) | Wheat plant response rating [11, 12] | Plant response rating, Wheat [11, 13] | Plant response rating, Wheat [11, 14] | Plant response rating, Wheat [11, 15] | Plant response rating, Wheat [11, 16] | Plant response rating, Wheat [11, 17] | Wheat plant response rating [11, 19]
100: Plant response rating, Waterhemp [5, 14] | Plant response rating, Waterhemp [5, 17] | Waterhemp plant response rating [5, 18] | Plant response rating, Lambsquarters [7, 13] | Plant response rating, Lambsquarters [7, 14] | Lambsquarters plant response rating [7, 19] | Plant response rating, Ragweed [8, 14]
35: Plant response rating, Barnyardgrass [2, 14] | Plant response rating, Nutsedge, Yellow [4, 15] | Plant response rating, Nutsedge, Yellow [4, 16] | Plant response rating, Crabgrass, Large [10, 13]
95: Plant response rating, Galium [1, 13] | Plant response rating, Galium [1, 14] | Plant response rating, Galium [1, 17] | Galium plant response rating [1, 19] | Ragweed plant response rating [8, 18]
